Laboratory results as given in paper PMC7399337, “Biological Properties and Absolute Configuration of Flavanones From Calceolaria thyrsiflora Graham” (Frontiers in Pharmacology, 2020).
Like-named read-outs stand apart in the source and are kept apart here.

Experiments:
[1] = test system: B16-F10 mouse metastatic melanoma cells; experiment: In vitro cytotoxic activity, CyQuant cell viability, 72 h; format: cell-based; settings: for CC50: Mus musculus, B16-F10, 72 h, read-out: LC50 ± SD
Description: Cell viability was measured using a CyQuant® Direct Cell Proliferation Assay Kit (Life Technologies, Grand Island, NY, USA) following the manufacturer’s instruction. Briefly, 5,000 cells per well were seeded onto a flat-bottom 96-well plate in 200 μL final volume. Six hours after seeding, the culture medium was replaced by the medium containing the tested compounds at 0.01 to 100 µM concentrations in DMSO (0.1% final concentration) during 72 h. Untreated cells (medium containing only 0.1% DMSO) were used as controls. At the end of the incubation, 100 μL of culture medium was removed from each well and replaced by detection reagent solution provided by the kit (which is a 1:5 mixture of the reagent CyQUANT®, direct nucleic acid stain and the reagent labeled as CyQUANT® direct background suppressor I). […] At least four independent experiments were performed for each concentration.

5-hLOX = target: T1, 5-hLOX (Homo sapiens, UniProt P09917); experiment: In vitro 5-hLOX enzyme assay (H2DCFDA fluorescence); format: biochemical; settings: for Type of inhibition: 5-hLOX; for inhibition at 10 µM: Flavanones at 10 µM
T1 construct: purchased Cayman Chemicals Inc. (Ann Arbor, MI, USA)
T1 sequence (P09917 1-674): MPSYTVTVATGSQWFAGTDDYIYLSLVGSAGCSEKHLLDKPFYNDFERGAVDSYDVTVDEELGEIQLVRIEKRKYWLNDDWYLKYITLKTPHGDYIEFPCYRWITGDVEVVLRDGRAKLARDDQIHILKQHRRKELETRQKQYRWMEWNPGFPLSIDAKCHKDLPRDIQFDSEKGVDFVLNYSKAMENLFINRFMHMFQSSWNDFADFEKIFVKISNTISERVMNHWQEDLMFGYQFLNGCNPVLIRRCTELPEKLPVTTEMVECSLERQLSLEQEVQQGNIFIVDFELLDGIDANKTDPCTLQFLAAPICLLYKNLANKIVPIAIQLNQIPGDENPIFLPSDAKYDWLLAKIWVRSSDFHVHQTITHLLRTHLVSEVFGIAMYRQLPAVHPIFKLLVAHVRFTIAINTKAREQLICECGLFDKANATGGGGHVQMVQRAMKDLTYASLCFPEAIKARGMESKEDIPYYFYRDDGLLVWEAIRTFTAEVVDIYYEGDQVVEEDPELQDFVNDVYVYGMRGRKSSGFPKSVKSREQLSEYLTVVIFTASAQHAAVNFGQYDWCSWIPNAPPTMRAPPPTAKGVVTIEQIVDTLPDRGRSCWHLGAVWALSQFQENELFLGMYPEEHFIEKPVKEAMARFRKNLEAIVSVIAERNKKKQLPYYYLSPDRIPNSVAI
Description: The commercially available enzyme 5-hLOX from Cayman Chemicals Inc. (Ann Arbor, MI, USA), was diluted (1:500) in the assay buffer. This contained 4-(2-hydroxyethyl)-1-piperazineethane sulfonic acid (HEPES) 50 mM, ethylenediamine tetraacetic acid (EDTA) 2 mM, adenosine triphosphate (ATP) 10 μM, and CaCl2 10 μM at pH 7.5) admixed with 10 μM of H2DCFDA. The reaction mixture was incubated for 15 min in the assay plate. Later, 280 μL of buffer and 10 μM of inhibitors were added per well and incubated for 30 min at 37°C. Finally, the reaction was started by adding a suitable concentration of arachidonic acid (0.5 μM) and the fluorescence was read in a multimode detector Synergy™ HT Multi-Mode Microplate Reader (Biotek, Bad Friedrichshall, Germany) […] after incubation at room temperature for 1 h. The IC50 values were obtained for analysis of oxidation of H2DCFDA dye to the highly fluorescent 2’,7’-dichloro-fluorescein (DCF) using the non-linear curve-fitting program. […] All data were collected in duplicate and the assays were performed on different days to ensure reproducibility.

15-sLOX = target: T2, 15-sLOX (Glycine max, UniProt P08170); experiment: In vitro 15-sLOX enzyme assay (absorbance at 234 nm); format: biochemical; settings: Flavanones at 10 µM (table footnote); method: 5 µg/ml
T2 construct: purchased Cayman Chemical Item No. 60712
T2 sequence (P08170 1-839): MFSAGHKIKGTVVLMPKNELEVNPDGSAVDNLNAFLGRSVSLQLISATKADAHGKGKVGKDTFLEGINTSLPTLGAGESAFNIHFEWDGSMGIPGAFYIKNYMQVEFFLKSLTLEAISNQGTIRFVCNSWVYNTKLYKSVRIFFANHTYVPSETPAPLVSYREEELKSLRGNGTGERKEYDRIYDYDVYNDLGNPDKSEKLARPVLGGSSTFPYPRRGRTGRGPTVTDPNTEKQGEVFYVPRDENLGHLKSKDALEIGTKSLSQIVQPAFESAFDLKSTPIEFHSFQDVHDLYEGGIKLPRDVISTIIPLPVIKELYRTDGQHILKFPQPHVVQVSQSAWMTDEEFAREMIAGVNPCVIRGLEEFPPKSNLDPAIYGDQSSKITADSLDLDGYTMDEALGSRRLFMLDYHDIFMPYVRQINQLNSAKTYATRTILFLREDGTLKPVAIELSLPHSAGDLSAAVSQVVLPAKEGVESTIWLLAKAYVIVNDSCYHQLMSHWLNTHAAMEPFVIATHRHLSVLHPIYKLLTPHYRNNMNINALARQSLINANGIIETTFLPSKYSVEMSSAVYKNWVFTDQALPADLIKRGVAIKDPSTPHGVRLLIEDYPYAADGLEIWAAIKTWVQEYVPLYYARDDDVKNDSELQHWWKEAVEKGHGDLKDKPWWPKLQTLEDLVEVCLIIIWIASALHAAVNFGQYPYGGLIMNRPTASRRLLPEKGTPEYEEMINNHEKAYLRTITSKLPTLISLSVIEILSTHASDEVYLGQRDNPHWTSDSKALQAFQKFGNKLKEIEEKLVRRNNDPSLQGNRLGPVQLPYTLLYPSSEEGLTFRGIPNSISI
Description: The activity of 15-sLOX (Cayman Chemical Item No. 60712) was determined following the formation of reaction products at 234 nm (ϵ = 25,000 M^-1 cm^-1) in a Perkin-Elmer Lambda 25 UV/Vis spectrophotometer. All reactions were performed at a final volume of 2 ml and were constantly stirred using a magnetic bar at room temperature. The reaction medium used contained 25 mM HEPES buffer (pH 7.4), Triton X-100 0.01%, and the arachidonic acid (AA) substrate at a 10 µM concentration determine preliminary percent inhibition (%I). AA concentration was determined quantitatively by allowing the enzymatic reaction to go to completion. The reaction was carried out by adding the inhibitor dissolved in DMSO (5 µg/ml in the reaction medium) to the bucket with the substrate buffer, and finally the enzyme was added. Assays were performed in duplicate on three different days. GraphPad Prism Demo V.7 performed the graphics for IC50 and kinetics studies ([GraphPad-Software-Inc., 2017]).

IC50 (5-hLOX; read-out: IC50 (5-hLOX))	Compound	LC50 ± SD ([1]; B16-F10, 72 h)	CC50 [1]	IC50 (5-hLOX)	Ki (5-hLOX)	Type of inhibition (5-hLOX)	inhibition at 10 µM (5-hLOX)	inhibition at 10 µM (15-sLOX)	fold less cytotoxic activity against B16-F10 than etoposide ([1]; B16-F10)	fold less cytotoxic activity against B16-F10 than taxol ([1]; B16-F10)	selectivity towards B16-F10 as compared to non-cancerous cells (MEF) ([1]; LC50 MEF versus B16-F10)
	COc1cc(O)c2c(c1)O[C@H](c1ccc(O)cc1)CC2=O [Compound 1, (-)-(2S)-5,4’-dihydroxy-7-methoxyflavanone]	no significant cytotoxic activity	72 ± 7.16 µM	11.3 µM	4.71 µM	non-competitive	61 ± 1.34%	7 ± 3.12%			
0.1 µM	COc1cc(O)c2c(c1)O[C@H](c1ccc(O)c(O)c1)CC2=O [Compound 2, (-)-(2S)-5,3’,4’-trihydroxy-7-methoxyflavanone]		8.07 ± 1.61 µM			competitive	93 ± 0.791%	26 ± 3.96%	4.6 fold	17 fold	4 fold
